Here are results for ten molecules from US20090093491A1, “Diazine Azole Derivatives, Their Manufacture and Use as Pharmaceutical” (priority 2005, published 2009).

The subject of one data set is HEK293 cells. The data set can be described thus: CellTiter-Glo Luminescent Cell Viability Assay in HEK293 cells. In kind it is cell-based. The settings on record: Homo sapiens, 7 days (168 h) incubation, 3 μM to 0.00015 μM. From the text:
CellTiter-Glo™ Assay in HEK293 Cells
The CellTiter-Glo™ Luminescent Cell Viability Assay (Promega) is a homogeneous method of determining the number of viable cells in culture based on quantitation of the ATP present, which signals the presence of metabolically active cells.
HEK293 cells (human embryonic kidney cell line transformed by Adenovirus 5 fragments, ATCC-No. CRL 1573) are cultivated in Dulbecco's Modified Eagle Medium (DMEM) with Glutamax™ (Invitrogen, 31966-021), 5% Fetal Calf Serum (FCS, Sigma Cat-No. F4135 (FBS)), 100 Units/ml penicillin/100 μg/ml streptomycin (=Pen/Strep from Invitrogen Cat. No. 15140). For the assay the cells are seeded in 384 well plates, 5000 cells per well, in the same medium. The next day the test compounds are added in various concentrations ranging from 3 μM to 0.00015 μM (10 concentrations, 1:3 diluted). After 7 days the CellTiter-Glo™ assay is done according to the instructions of the manufacturer (CellTiter-Glo™ Luminescent Cell Viability Assay, from Promega). In brief: the cell-plate is equilibrated to room temperature for approximately 30 minutes and than the CellTiter-Glo™ reagent is added. The contents are carefully mixed for 15 minutes to induce cell lysis. After 45 minutes the luminescent signal is measured in Victor 2, (scanning multiwell spectrophotometer, Wallac).
1. day: • Medium: Dulbecco's Modified Eagle Medium (DMEM) with Glutamax™ (Invitrogen, 31966-021), 5% Fetal Calf Serum (FCS, Sigma Cat-No. F4135 (FBS)), Pen/Strep (Invitrogen Cat. No. 15140). • HEK293 (ATCC-No. CRL 1573): 5000 cells in 60 μl per well of 384 well plate (Greiner 781098, white plates) • Incubate 24 h at 37° C., 5% CO2 2. day: Induction (Substance testing):
In general the dilution steeps are 1:3 • a) Add 8 μl of 10 mM stock solution of compound to 72 μl DMSO • b) dilute 9× 1:3 (always 30 μl to 60 μl DMSO) in this DMSO dilution row (results in 10 wells with concentrations from 1000 μM to 0.06 μM) • c) dilute each concentration 1:4.8 (10 μl compound dilution to 38 μl medium) • d) dilute each concentration 1:10 (10 μl compound dilution to 90 μl medium) • e) add 10 μl of every concentration to 60 μl medium in the cell plate • resulting in final concentration of DMSO: 0.3% in every well • and resulting in final concentration of compounds from 3 μM to 0.00015 μM • Incubate 168 h (7 days) at 37° C., 5% CO2
• Add 30 μl CellTiter-Glo™ Reagent/well, • shake 15 minutes at room temperature • incubate further 45 minutes at room temperature without shaking.
• Victor 2 scanning multiwell spectrophotometer (Wallac), Luminescence mode • Determine IC50 with XL-fit (XLfit software (ID Business Solution Ltd., Guilford, Surrey, UK)).
A general note: In ATP-based viability assays light output follows the ATP content of the culture.

In general, IC50 refers to the midpoint of a concentration-inhibition curve. Low readings indicate greater potency, high ones weaker potency. Molecule `FC(F)(F)Oc1ccc(/C=C/c2nc(COc3ccc(CCCCn4ccnc4)nn3)co2)cc1` [Example 1, 3-(4-Imidazol-1-yl-butyl)-6-{2-[(E)-2-(4-trifluoromethoxy-phenyl)-vinyl]-oxazol-4-ylmethoxy}-pyridazine] yielded an IC50 with HEK293 cells of 200 to 2000 nM. As a reminder, the melting point is the temperature, or range, at which the solid turns liquid. Turning to `Clc1ccc(/C=C/c2nc(COc3ccc(CCCCn4cncn4)nn3)co2)cc1` [Example 2, 3-{2-[(E)-2-(4-Chloro-phenyl)-vinyl]-oxazol-4-ylmethoxy}-6-(4-[1,2,4]triazol-1-yl-butyl)-pyridazine], the melting point lay in the range of 165 to 167 °C. This molecule registered a half-inhibitory concentration (IC50) with HEK293 cells of 200 to 2000 nM. The matching figures for `FC(F)(F)c1ccc(/C=C/c2nc(COc3ccc(CCCCn4cncn4)nn3)co2)cc1` [Example 3, 3-(4-[1,2,4]Triazol-1-yl-butyl)-6-{2-[(E)-2-(4-trifluoromethyl-phenyl)-vinyl]-oxazol-4-ylmethoxy}-pyridazine]: 145 to 146 °C and 930 nM. The matching figures for `Fc1cc(C(F)(F)F)ccc1/C=C/c1nc(COc2ccc(CCCCn3cncn3)nn2)co1` [Example 4, 3-{2-[(E)-2-(2-Fluoro-4-trifluoromethyl-phenyl)-vinyl]-oxazol-4-ylmethoxy}-6-(4-[1,2,4]triazol-1-yl-butyl)-pyridazine]: 141 to 143 °C and 200 to 2000 nM. Take `FC(F)(F)c1ccc(/C=C/c2nc(COc3cnc(CCCCn4cncn4)cn3)co2)cc1` [Example 5, 2-(4-[1,2,4]Triazol-1-yl-butyl)-5-{2-[(E)-2-(4-trifluoromethyl-phenyl)-vinyl]-oxazol-4-ylmethoxy}-pyrazine]: the melting point is 147 to 148 °C. In the data set with HEK293 cells, this molecule registered a half-inhibitory concentration (IC50) of 200 to 2000 nM. The matching figures for `Clc1ccc(/C=C/c2nc(COc3cnc(CCCCn4cncn4)cn3)co2)cc1` [Example 6, 2-{2-[(E)-2-(4-Chloro-phenyl)-vinyl]-oxazol-4-ylmethoxy}-5-(4-[1,2,4]triazol-1-yl-butyl)-pyrazine]: 157 to 158 °C and 1340 nM. As for `FC(F)(F)Oc1ccc(/C=C/c2nc(COc3cnc(CCCCn4cncn4)cn3)co2)cc1` [Example 7, 2-(4-[1,2,4]Triazol-1-yl-butyl)-5-{2-[(E)-2-(4-trifluoromethoxy-phenyl)-vinyl]-oxazol-4-ylmethoxy}-pyrazine], the melting point was 121 to 123 °C. For `FC(F)(F)Oc1ccc(/C=C/c2nc(COc3ncc(CCCCn4cccn4)cn3)co2)cc1` [Example 8, 5-(4-Pyrazol-1-yl-butyl)-2-{2-[(E)-2-(4-trifluoromethoxy-phenyl)-vinyl]-oxazol-4-ylmethoxy}-pyrimidine], the melting point is 143 to 145 °C. Further, the IC50 in the data set with HEK293 cells was 200 to 2000 nM.

On to `FC(F)(F)c1ccc(/C=C/c2nc(COc3ncc(CCCCn4cccn4)cn3)co2)cc1` [Example 9, 5-(4-Pyrazol-1-yl-butyl)-2-{2-[(E)-2-(4-trifluoromethyl-phenyl)-vinyl]-oxazol-4-ylmethoxy}-pyrimidine], for which the melting point lay in the range of 156 to 157 °C. In the case of `Clc1ccc(/C=C/c2nc(COc3ncc(CCCCn4cccn4)cn3)co2)cc1` [Example 10, 5-(4-Pyrazol-1-yl-butyl)-2-{2-[(E)-2-(4-chloro-phenyl)-vinyl]-oxazol-4-ylmethoxy}-pyrimidine], the melting point was in the range of 149 to 150 °C. In the data set on HEK293 cells, this molecule registered an IC50 of 200 to 2000 nM.
